Measurements reported in patent US4131615A, “Furan derivative for use as pharmaceutical product particularly for the treatment of rheumatic illnesses” (A. Wasserman S.p.A., priority 1977, dated 1978).

Assays:
[1] = system: Cotton-Pellet induced granuloma; experiment: Anti-inflammatory activity on Cotton-Pellet induced granuloma; type: in vivo, female Sprague Dawley rats; settings: 15 mg/Kg oral daily for 7 days, divided into 4 administrations over 9 hours
Description: (§1) The product of the EXAMPLE 1, ±αmethyl-4-(furan-2-carbonyl)phenyl acetic acid, was subjected to toxicological and pharmacological tests in rats and mice. The animals used were Sprague Dawley rats and Swiss mice of both sexes, to which the product was administered orally as a 2% suspension in gum arabic parenterally as the sodium salt.
3) Anti-inflammatory activity on Cotton-Pellet induced granuloma.
The oral administration daily for 7 days of a dose of 15 mg/Kg of the product, divided into 4 administrations taken over a time of 9 hours, reduced the formation of granulomatous tissue formed around Cotton-Pelletsplanted aseptically under the skin of female rats, weighing from 180 to 200 grams, by 17% with respect to controls.

[2] = Acute oral toxicity in rats; parameters: species or system female Sprague Dawley rats; settings: in vivo, rat, 14 days, approximate value
Description: as §1
(§2) This has been tested in male and female mice weighing from 18 to 22 g and in female rats weighing from 90 to 120 grams.
(§3) The product was administered to groups of 6 mice and groups of 6 rats, mortality being looked for 14 days after the administration.

[3] = system: contortions caused by phenyl-p-benzoquinone; experiment: Analgesic activity, phenyl-p-benzoquinone contortions; type: in vivo, female Swiss mice; settings: Mus musculus; oral, female mice, contortions by intraperitoneal 0.02% phenyl-p-benzoquinone
Description: as §1
The oral administration of the product to female mice weighing from 18 to 22 grams reduced the number of contortions caused by the intraperitoneal injection of 0.1 ml/10 g of body weight of a 0.02% solution of phenyl-p-benzoquinone.

[4] = Acute oral toxicity in mice; parameters: species or system male and female Swiss mice; settings: in vivo, mouse, 14 days, approximate value
Description: as §1, §2, §3

[5] = system: arterial pressure; experiment: Action on arterial pressure; type: in vivo; settings: endovenous injection, 2.5-12.5-62.5 mg/Kg, rabbit
Source text: 7) Action on arterial pressure.

[6] = system: edema induced by Carrageenan; experiment: Anti-inflammatory activity, Carrageenan-induced edema; type: in vivo, male Sprague Dawley rats; settings: 80 mg/Kg oral, 30 minutes before Carrageenan, after 3 hours
Description: as §1
An edema was induced in male rats weighing about 120 grams by injection into the aponeurosis under the plantaris of the left foot of 0.1 ml of 1% Carrageenan in saline.
The oral administration of 80-40-20 mg/Kg of product, 30 minutes before the inflammatory agent, reduced after 3 hours the development of the edema by rispectively 53%-47% -23% with respect to that induced in the controls.

[7] = system: experimentally induced arthritis (Freund's adjuvant arthritis); experiment: Freund's adjuvant arthritis; type: in vivo; settings: 20-40 mg/Kg oral, rat, confirmed by radiologic test
[8] = system: Yeast-Induced fever; experiment: Antipyretic Effect in Yeast-Induced fever; type: in vivo, female Sprague Dawley rats; settings: 80 mg/Kg oral, after 60 minutes (peak-effect)
Description: as §1
5) Antipyretic Effect in Yeast-Induced fever.
The oral administration of rispectively 80-40-20 mg/Kg of the product to female rats reduces the increase in temperature of the rectum, caused by the injection under the skin of 10 ml/Kg of 15% brewer's yeast in 1% arabic gum, by rispectively 71%-63%-33% after 60 minutes (peak-effect) from the administration.

[9] = system: Nystatin subplantaris edema; experiment: Curative activity, Nystatin subplantaris edema; type: in vivo; settings: rat, doses equal to those cited above (80-40-20 mg/Kg)
Description: as §1

CC(C(=O)O)c1ccc(C(=O)c2ccco2)cc1 (racemic) [Example 1, ±α-methyl-4-(furan-2-carbonyl)-phenylacetic acid]
reduction of the formation of granulomatous tissue with respect to controls [1]: 17% | LD50 at 336 h [2]: ~980 mg/kg | ED50 [3]: 4.35 mg/kg | LD50 at 336 h [4]: ~1000 mg/kg | variations in the blood pressure [5]: does not induce significant variations in the blood pressure | reduction of the development of the edema with respect to controls [6]: 53% | Recovery from experimentally induced arthritis [7]: Recovery from experimentally induced arthritis in the rat (Freund's adjuvant arthritis) has been obtained | reduction of the increase in temperature of the rectum [8]: 71% | regress of the Nystatin subplantaris edema (curative activity) [9]: induce in the rat a regress of the Nystatin subplantaris edema
